The source made the active and inactive calls.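 Rule for the calls: active = compound whose binding-signal loss grows with dose, reaching half its maximum below 10 micromolar; inactive = the rest.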
Columns and labels:
[1] = MEKK2 PB1 heterodimer disruption – biochemical, TR-FRET, Eu and Cy5 interference panels, dose response (AID 463089); conditions: TR-FRET MEKK2-MEK5 PB1 binding; for response (panel-specific, % change): at 30 µM (top of the series)
[2] = molecular target: Mitogen-activated protein kinase kinase kinase 2 (Homo sapiens) (UniProt Q9Y2U5); assay: as above; conditions: TR-FRET MEKK2-MEK5 PB1 binding, TR-FRET binding assay; for response (panel-specific, % change): at 30 µM (top of the series)
[3] = Cy5 fluorescence 665 nm counterscreen
[4] = Eu fluorescence 620 nm counterscreen

Mitogen-activated protein kinase kinase kinase 2 (Homo sapiens), sequence (Q9Y2U5 whole entry, looked up): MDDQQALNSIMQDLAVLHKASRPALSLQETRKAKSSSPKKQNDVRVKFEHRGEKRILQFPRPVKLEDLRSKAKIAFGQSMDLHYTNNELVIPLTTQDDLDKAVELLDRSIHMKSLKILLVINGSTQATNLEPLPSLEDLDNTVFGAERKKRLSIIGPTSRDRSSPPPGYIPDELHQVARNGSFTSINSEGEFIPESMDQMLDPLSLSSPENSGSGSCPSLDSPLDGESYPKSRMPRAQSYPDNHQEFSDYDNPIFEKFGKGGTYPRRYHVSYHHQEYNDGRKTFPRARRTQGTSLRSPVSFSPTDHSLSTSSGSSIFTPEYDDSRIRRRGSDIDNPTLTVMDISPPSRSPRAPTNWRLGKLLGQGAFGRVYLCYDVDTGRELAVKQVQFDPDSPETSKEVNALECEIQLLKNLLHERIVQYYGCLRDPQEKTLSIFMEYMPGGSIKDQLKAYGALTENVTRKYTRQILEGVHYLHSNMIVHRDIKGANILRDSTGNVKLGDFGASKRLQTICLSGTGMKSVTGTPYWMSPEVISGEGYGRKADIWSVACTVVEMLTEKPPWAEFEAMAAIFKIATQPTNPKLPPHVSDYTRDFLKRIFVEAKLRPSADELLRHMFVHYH

| response (panel-specific, % change) [1, 3] | EC50 [1, 4] | response (panel-specific, % change) [2] | response (panel-specific, % change) [1, 4] | EC50 [2] | EC50 [1, 3] | SMILES |
| --- | --- | --- | --- | --- | --- | --- |
| inactive | 2 µM | inactive | – | – | – | CCN1/C(=C/C(C)=C/c2sc3ccccc3[n+]2CC)Sc2ccccc21 |
| inactive | – | – | inactive | – | – | CN1CCN(c2ccc(NC(=O)c3ccc(-c4ccc(Cl)cc4)o3)cc2)CC1 |
| inactive | 1.6 µM | – | – | 3.5 µM | – | CCNc1ccc2noc3c2c1C(=O)c1ccccc1-3 |
| – | 1.9 µM | inactive | – | – | 4.1 µM | CCC(=C/c1sc2ccc3ccccc3c2[n+]1C)/C=C1\Sc2ccc3ccccc3c2N1C |
| inactive | 1.5 µM | – | – | 2 µM | – | Nc1cc2nc[nH]c2cc1N |
| inactive | – | – | inactive | 2.2 µM | – | COc1cccc(OC)c1-c1nn2c(-c3cc(-c4ccccc4)n[nH]3)nnc2s1 |

Reference: PubChem BioAssay AID463089 (NMMLSC, 2010)
